How the values were obtained:
Format in all cases: in vivo
saw tooth grain beetles = assay: Repellency of test compounds on grain beetles, treated corn kernels; settings: 5% in isopropyl alcohol, 3 week period
Experimental: Ten replicates of 30 kernels of corn are immersed into the test compound and allowed to dry for 24 hours. The kernels are then transferred to a test container, and 10 saw tooth grain beetles are released. Test containers are secured and left for a 3 week period. At the end of this time, the […] grains are examined for feeding damage. […] Ten additional replicates treated with isopropyl alcohol are prepared to serve as controls.

granary weevils = assay: Granary weevil test on treated wheat kernels; settings: 5% in isopropyl alcohol, 3 week period
Experimental: Ten replicates of 30 kernels of wheat were immersed into the test compound and allowed to dry for 24 hours. The grains were then transferred to a test container, and 10 granary weevils were released. Test containers were secured and left for a 3 week period. At the end of this time, the wheat grains were examined for developing larvae and damage by larvae. […] Ten additional replicates treated with isopropyl alcohol were prepared to serve as controls.

Codling Moth larvae = assay: Repellency as feeding deterrence and mortality in Codling Moth larvae on treated media
Experimental: Another test was designed to measure the repellency as feeding deterrence in Codling Moth larvae. The treatment was applied to the surface of a proprietary laboratory media in a tray with wells for each compound. The media was allowed to dry for 30-60 minutes so that larvae were not exposed to it as a liquid. One first instar codling moth larva was then placed on the treated media. The cover film was placed on the tray to prevent escapes. Ten additional replicates treated with a 57% ethanol solution were prepared to serve as controls. […] After the 24 hour reading, the larvae were extracted from the media to record any mortality.
Mortality observations were also made for the above protocol. The control was the 57% ethanol:43% water solution.

psyllids = assay: Psyllid repellency on potato choice assays; settings: 3% compound; potato plants; 100 psyllids per cage; control 50/50
Excerpt: Psyllid Repellency on Potato Choice Assays
Potato plants are sprayed with either a 3% solution of repellent chemical in a 5%:95% ETOH:Water or only 5%:95% ETOH:Water as a control. Two plants are placed in a screen cage, either a treatment vs control tree or a control vs control tree, 100 psyllids are released into each cage. The number of psyllids choosing each leaf is counted for both choice tests. The number of psyllids choosing each treatment is compared to the control to determine if there is a repellent effect.

Popillia japonica = assay: Japanese beetle feeding damage on basil; settings: 3% compound; basil leaf disks; adult beetle; 24 h
Experimental: (§1) Japanese Beetle Feeding Damage on Basil For choice feeding assays, 3% alcohol solutions of the tested compounds are prepared. Disks (4.0 cm in diameter) are cut from basil leaves and are dipped in the test solutions or alcohol alone as a control. After the complete evaporation of the solvent, the disks are offered to 1 adult beetle. All dishes are placed in an incubator. Four replicates are used for each chemical. After 24 h, the remaining uneaten area of each basil leaf disk is measured using a scanner and software. The selective antifeeding rate (%) formula is [(C−T)/(C+T)]×100, and the non-selective antifeeding rate (%) formula is [(C−T)/C)]×100, where C and T are the areas consumed by the control and treated leaf disks, respectively.

Tineola spp. = assay: Clothes moth feeding damage on silk fabric, choice test; settings: 3% compound; silk disks; late instar larvae; 24 hours; control 50/50
Experimental: For feeding assays, 3% alcohol solutions of the tested compounds are prepared. Disks (2.0 cm in diameter) of undyed silk fabric are dipped in the test solutions or alcohol alone as a control. After the complete evaporation of the solvent, the disks are presented in a choice test to 10 late instar Tineola spp. larvae. All dishes are placed in an incubator in the dark. Four replicates are used for each chemical. After 24 hours, the number of individuals choosing to feed on each disk are counted.

sharpshooters = assay: Leafhopper repellency on citrus choice assays; settings: 3% compound; citrus seedlings; 100 sharpshooters per cage; control 50/50
Excerpt: Leafhopper Repellency on Citrus Choice Assays Citrus seedlings are sprayed with either a 3% solution of repellent chemical in a 5%:95% ETOH:Water or only 5%:95% ETOH:Water as a control. Two seedlings are placed in a screen cage, either a treatment vs control tree or a control vs control tree. 100 sharpshooters are released into each cage. The number of sharpshooters choosing each leaf is counted for both choice tests. The number of sharpshooters choosing each treatment is compared to the control to determine if there is a repellent effect.

Plodia interpunctella = assay: Feeding repellent assay for Indian meal moth larva on treated rice; settings: 10% compound in a 5% Ethanol:95% water solution, third instar larvae, 1 week
Experimental: (§2) Feeding Repellent Assay for Indian Meal Moth Larva One gram of rice is weighed and treated with 2% by weight of each test chemical or ethanol as a control for each treatment and replicate. The grains are allowed to dry and then weighed again. Treated or control rice grains are placed in a petri dish. Third instar larvae are starved for 8 h and gently introduced into the center of each compartment. 20 larva are screened per treatment, and each experiment is repeated three times. The weight of rice grains is measured again after 1 week. The selective antifeeding rate (%) formula is [(C−T)/(C+T)]×100, and the non-selective antifeeding rate (%) formula is [(C−T)/C)]×100, where C and T are the areas consumed by the control and treated leaf disks, respectively.

[1] = tested on: Leptinotarsa decemlineata-Colorado Potatoe Beetles; assay: Choice feeding assay on potato leaf disks; settings: 3% compound, larvae, 24 h
Experimental: as §1, with “For” for “Japanese Beetle Feeding Damage on Basil For”, “potato” for “basil”, “10 larvae. Control and treated disks are placed at alternate corners in Petri dishes (150 by 20 mm) lined with moistened filter paper (choice test).” for “1 adult beetle.”, “replicates and 40 larva” for “replicates”, “chemical. In each replicate, the insects are allowed to feed ad libitum for 24 h at 24 C under a 16:8 (L:D) photoperiod.” for “chemical.”

[2] = tested on: Euschistus heros-Neotropical Brown Stink Bugs; assay: Stink bug feeding damage on soybean pods; settings: 3% compound, soybean plants at R6 stage, 48 hours
Experimental: To compare the feeding/resting preference of stink bug adults for different plant parts, 10 pots with soybean plants at the R6 (pod-filling) stage of development are used. 5 pots of soybeans are sprayed with 3% of treatment in a 2% Triton X:water solution and 5 pots of soybean are treated with 2% Triton X:water solution as controls. Thirty stink bugs are placed individually in each cage and allowed to feed for 48 hours. Insects are removed and plant parts are collected for visual analysis of damage. Feeding damage on the pods is counted for both treatments. The selective antifeeding rate (%) formula is [(C−T)/(C+T)]×100, and the non-selective antifeeding rate (%) formula is [(C−T)/C)]×100, where C and T are the numbers of feeding damages on the control and treated plant pods, respectively.

Dermestid spp. = assay: Dermestid beetle feeding damage on silk fabric; settings: 3% compound; undyed silk disks; late instar larvae; 1 week
Experimental: Dermestid Beetle Feeding Damage on Silk Fabric
For feeding assays, 3% alcohol solutions of the tested compounds are prepared. Disks (4.0 cm in diameter) of undyed silk fabric are dipped in the test solutions or alcohol alone as a control. After the complete evaporation of the solvent, the disks are offered to 10 late instar larvae. All dishes are placed in an incubator. Four replicates are used for each chemical. After 1 week, the remaining uneaten area of each silk disk is measured using a scanner and software. The selective antifeeding rate (%) formula is [(C−T)/(C+T)]×100, and the non-selective antifeeding rate (%) formula is [(C−T)/C)]×100, where C and T are the areas consumed by the control and treated silk disks, respectively.

Aphis gossypii = assay: Melon aphid repellency on leaf choice assays; settings: 3% compound in a Triton X:Water solution; n=100; control 50/50
Excerpt: Melon Aphid Repellency on Leaf Choice Assays Aphis gossypii are maintained on squash plants. Individual aphids (n=100) are given the choice between leaves with and without repellent treatments. A separate group of aphids are given a choice between untreated vs. untreated leaves as a control. The number of aphids choosing each leaf is counted both choice tests. The number of aphids choosing each treatment is compared to the control to determine the repellent effect.

Sitostroga cerealella = assay: Feeding repellent assay for Angoumois larva on treated rice; settings: 10% compound in a 5% Ethanol:95% water solution, third instar larvae, 1 week
Experimental: Feeding Repellent Assay for Angoumois Larva
as §2, with “One” for “Feeding Repellent Assay for Indian Meal Moth Larva One”

[3] = tested on: brown marmorated stink bugs (BMSB); assay: Repellency as feeding deterrence in brown marmorated stink bugs, treated filter paper with green bean; settings: compound at 3.5% in a 57% Ethanol:43% water solution; control 38%
Experimental: A test was designed to measure the repellency as feeding deterrence in brown marmorated stink bugs (BMSB). Five replicates of 5 BMSBs were introduced into test arenas, containing one 60 mm×15 mm Petri dish with treated filter papers in which a food source (green bean) was attached, at the start of the test. The small Petri dishes containing the treated filter paper and food source were covered with a fitted Petri dish lid in between observation times, and were removed 5 minutes before each observation time to prevent stink bugs from feeding until sated. The distribution of the BMSBs was observed and documented hourly for 5 hours.

Row | Compound | Increased Repellency vs. Control Repellency (saw tooth grain beetles) | Increased Mortality over Control Mortality (granary weevils) | Increased Repellency vs. Control Repellency (granary weevils) | Repellency at 24 hours (Codling Moth larvae; compound at 3.5% in a 57% Ethanol:43% water solution, first instar larva, control 8%) | Increased Mortality over Control Mortality at 24 hours (Codling Moth larvae; in vivo) | Number of Psyllids Choosing each Treatment: Treated (psyllids) | Number of Psyllids Choosing each Treatment: Untreated (psyllids) | % Repellency (Popillia japonica) | Individuals choosing to feed on each disk: Treated (Tineola spp.) | Individuals choosing to feed on each disk: Untreated (Tineola spp.) | Number of Psyllids Choosing each Treatment: Treated (sharpshooters) | Number of Psyllids Choosing each Treatment: Untreated (sharpshooters) | % Antifeedent Activity (Plodia interpunctella) | % Repellency [1] | % Antifeedent Activity [2] | % Repellency (Dermestid spp.) | Number of Aphids Choosing each Treatment: Treated (Aphis gossypii) | Number of Aphids Choosing each Treatment: Untreated (Aphis gossypii) | % Antifeedent Activity (Sitostroga cerealella) | Repellency averaged over 5 hours [3]
1 | CC1=CC(O)CC(CC(C)C)C1 (stereo not drawn) [3-Methyl-5-Isobutyl-2-Cyclohexenol] | 85% | 93% | 86% |  |  |  |  |  |  |  |  |  |  |  |  |  |  |  |  | 
2 | CCCC1CC(=O)C=C(C)C1 (stereo not drawn) [3-Methyl-5-Propyl-2-Cyclohexenone] | 60% | 57% | 66% | 21% | 1% |  |  |  |  |  |  |  |  |  |  |  |  |  |  | 
3 | CCCCCCCC1CCCC(=O)O1 (stereo not drawn) [Delta-dodecalactone] |  |  |  |  |  | 20 | 80 | 40% | 10 | 90 | 20 | 80 | 70% | 40% | 80% | 40% | 20 | 80 | 70% | 
4 | CCCCCC1C(=O)CCC1CC(=O)OC (stereo not drawn) [Methyl Dihydrojasmonate] |  |  |  |  |  | 30 | 70 | 15% | 20 | 80 | 30 | 70 | 60% | 15% | 90% | 15% | 30 | 70 | 60% | 90%
5 | CCCCCC1C(O)CCC1CC(=O)OC (stereo not drawn) [Methyl dihydrojasmolate] |  |  |  |  |  | 30 | 70 | 15% | 20 | 80 | 30 | 70 | 60% | 15% | 90% | 15% | 30 | 70 | 60% | 

Reference: patent publication US11224223B2, “Feeding deterrence of pests such as Hemiptera, Lepidoptera and Coleoptera” (BEDOUKIAN RESEARCH, INC., priority 2012, dated 2022)
